In publication PMC4541410 (Scientific Reports, 2015):
Where two headings read alike, the source gives them in different places. Where a SMILES comes first, the peptide text is derived from it.

Legend:
[1] = biological target: T1, gp41 6-HB formation between N36 and C34 (Human immunodeficiency virus type 1 group M subtype B, UniProt P04578); assay: biochemical; format: biochemical, HIV-1; conditions: read-out: IC50, inhibition of 6-HB formation between C34 and N36; N36 1 μM preincubated with peptide 37 °C 30 min, then C34 1 μM; ELISA with mAb NC-1; triplicate
T1 construct: gp41 NHR (“N36”, 546-581); made in house; host or cells: chemical solid-phase FMOC synthesis
T1 sequence (P04578 546-581): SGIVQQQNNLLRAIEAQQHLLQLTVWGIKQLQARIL
Procedure: Inhibition of gp41 six-helix bundle formation by a testing peptide was determined with a sandwich ELISA described previously. […] A450 was determined by an ELISA reader (Ultra 384, Tecan).

[2] = tested on: HIV-1Bal (subtype B, R5); conditions: read-out: IC50, inhibition of infection by HIV-1Bal; M7 cells, 100 TCID50, p24 ELISA day 7; triplicate, repeated twice
Excerpt: (§1) Then, the culture supernatants were changed to fresh media. On the fourth day post-infection, culture supernatants were collected for detection of p24 antigen by ELISA. […] Then, the culture supernatants were changed to fresh media. On the fourth day post-infection, the culture supernatants were discarded and fresh media were complemented again. The supernatants were collected on the seventh day post-infection and tested for p24 antigen by ELISA as previously described. The percent inhibition of p24 production was calculated.

[3] = tested on: HIV-1IIIB (subtype B, X4); conditions: read-out: IC50, inhibition of infection by HIV-1IIIB; MT-2 cells, 100 TCID50, p24 ELISA day 4; triplicate, repeated twice
Excerpt: as §1

[4] = tested on: HIV-1IIIB (subtype B, X4); assay: Inhibition of HIV-1 IIIB infection by peptides in the presence of sera from HIV-1-infected patients; format: cell-based; conditions: for Fold change of IC50, HPS-1: HPS-1 relative to N; for Fold change of IC50, HPS-2: HPS-2 relative to N; for Fold change of IC50, HPS-3: HPS-3 relative to N; for Fold change of IC50, HPS-4: HPS-4 relative to N; for Fold change of IC50, HPS-5: HPS-5 relative to N; for IC50: MT-2 cells, triplicate, mean ± SD
Procedure: Inhibition of peptides on HIV-1IIIB (subtype B, X4)infection in the presence of HIV-1-infected patients’ sera was determined as previously described. Briefly, each peptide was mixed with serially diluted serum from an HIV-1-infected patient at room temperature for 30 min. Next, the mixture of peptide/serum and HIV-1 (100 TCID50) were added to MT-2 cells (1 × 10^5/ml) in RPMI 1640 medium containing 10% FBS. After incubation at 37 °C overnight, the culture supernatants were replaced with fresh culture medium.

[5] = tested on: preexisting antibodies in sera from HIV-1-infected patients; assay: Sandwich ELISA: cross-reactivity of peptides with preexisting antibodies in HIV-1-infected patients; format: binding, human; conditions: peptide coated at 10 μg/ml, serially diluted sera, 37 °C 1 h, A450
Procedure: A sandwich ELISA was conducted to determine the cross-reactivity of the peptides with the preexisting antibodies in HIV-1-infected patients. […] The wells were then blocked with 1% gelatin, followed by addition of 50 μl of serially diluted sera from HIV-1-infected patients and incubation at 37 °C for 1 h. Then, HRP-labeled goat-anti-human IgG (Abcam, UK) and TMB were added sequentially. A450 was determined with an ELISA reader (Ultra 384, Tecan).

[6] = biological target: T2, N36 (gp41 NHR peptide) (Human immunodeficiency virus type 1 group M subtype B, UniProt P04578); assay: CD spectroscopy and thermal midpoint analysis of peptide/N36 complexes; format: physicochemical, HIV-1; conditions: for Tm of complex with N36: CD thermal denaturation at 222 nm, 4 to 98 °C, 5 °C/min, 10 μM in PBS pH 7.2; for α-helix content of complex with N36: CD, peptide/N36 mixture 10 μM in PBS pH 7.2, 4 °C
T2 construct: gp41 NHR (“N36”, 546-581); made in house; host or cells: chemical solid-phase FMOC synthesis
T2 sequence (P04578 546-581): as above
Procedure: Briefly, each peptide or peptide mixture was dissolved in phosphate-buffered saline (PBS: 50 mM sodium phosphate and 150 mM NaCl, pH 7.2) at the final concentration of 10 μM and incubated at 37 °C for 30 min before cooling down to 4 °C. The CD spectra of each sample were acquired on a Jasco spectropolarimeter (Model J-815, Jasco Inc., Japan) at 4 °C using a 5 nm bandwidth, 0.1 nm resolution, 0.1 cm path length and an average time of 5.0 sec. Spectra were corrected by the subtraction of a blank corresponding to the solvent composition of each sample. Thermal midpoint analysis was used to determine the temperature at which 50% of the 6-HB formed by the CHR and NHR would decompose. It was monitored at 222 nm from 4 °C to 98 °C by applying a thermal gradient of 5 °C/min. The melting curve was smoothed and the midpoint of the thermal unfolding transition (Tm) values was calculated using Jasco software utilities as described above.

[7] = tested on: 92UG024 (D); format: cell-based; conditions: primary HIV-1 isolate, subtype D; read-out: IC50 (nM), infection by primary isolate 92UG024 (D)
[8] = tested on: NP1525 (A/E); format: cell-based; conditions: primary HIV-1 isolate, subtype A/E; read-out: IC50 (nM), infection by primary isolate NP1525 (A/E)
[9] = tested on: 93BR020 (F); format: cell-based; conditions: primary HIV-1 isolate, subtype F; read-out: IC50 (nM), infection by primary isolate 93BR020 (F)
[10] = tested on: T20-resistant HIV-1 variant V38A; format: cell-based
[11] = tested on: T20-resistant HIV-1 variant V38A/N42D; format: cell-based
[12] = tested on: T20-resistant HIV-1 variant N42T/N43K; format: cell-based
[13] = tested on: T20-resistant HIV-1 variant V38E/N42S; format: cell-based
[14] = tested on: T20-resistant HIV-1 variant V38A/N42T; format: cell-based
[15] = tested on: 92UG029 (A); conditions: read-out: IC50 (nM), infection by primary isolate 92UG029 (A); primary HIV-1 isolate, subtype A
[16] = tested on: 94US_33931N (B); conditions: read-out: IC50 (nM), infection by primary isolate 94US_33931N (B); primary HIV-1 isolate, subtype B
[17] = tested on: 93IN101 (C); conditions: read-out: IC50 (nM), infection by primary isolate 93IN101 (C); primary HIV-1 isolate, subtype C
[18] = tested on: 92TH009 (A/E); conditions: read-out: IC50 (nM), infection by primary isolate 92TH009 (A/E); primary HIV-1 isolate, subtype A/E
[19] = tested on: BCF020 (Group O); conditions: read-out: IC50 (nM), infection by primary isolate BCF020 (Group O), primary HIV-1 isolate
[20] = intravenous 1 mg/kg, male SD rats, n = 2; plasma by sandwich ELISA; PK Solver
Procedure: (§2) Four male SD rats weighing approximately 200 g each were obtained from the Shanghai Medical School Animal Center and were used for the half-life assay. […] After injection, blood samples were acquired from rat orbit at several time points (8 and 30 min and 1.5, 3, 6, 9, 12 and 24 h after peptide injection) and placed in clean tubes. […] Then, HRP-labeled rabbit-anti-mouse IgG (Sigma, USA) and TMB were added in order. Absorbance at 450 nm was determined by an ELISA reader (Ultra 384, Tecan). The standard peptide parameters were obtained first. Then, the plasma peptide concentrations were determined as a function of time and the half-life was calculated by using PK Solver for Microsoft Excel to obtain pharmacokinetic parameters.

[21] = in vivo; conditions: male, Sprague-Dawley (SD), rat, plasma, iv, 1 mg/kg
Procedure: as §2

[22] = in presence of serum of HIV-1-infected patient HPS-1, read-out: IC50 (nM), HIV-1 IIIB infection, HPS-1
[23] = in presence of serum of HIV-1-infected patient HPS-2, read-out: IC50 (nM), HIV-1 IIIB infection, HPS-2
[24] = in presence of serum of HIV-1-infected patient HPS-3, read-out: IC50 (nM), HIV-1 IIIB infection, HPS-3
[25] = in presence of serum of HIV-1-infected patient HPS-4, read-out: IC50 (nM), HIV-1 IIIB infection, HPS-4
[26] = in presence of serum of HIV-1-infected patient HPS-5, read-out: IC50 (nM), HIV-1 IIIB infection, HPS-5

COc1ccc(S(=O)(=O)O)cc1N=Nc1c(S(=O)(=O)O)cc2cc(Nc3nc(Nc4ccccc4)nc(Nc4cc(C)c(N=Nc5cc(S(=O)(=O)O)cc6cc(S(=O)(=O)O)cc(O)c56)cc4OC)n3)ccc2c1O [ADS-J1, reference compound]
IC50 [1]: 2750 nM

CC[C@H](C)[C@H](NC(=O)[C@H](CO)NC(=O)[C@H](CCC(=O)O)NC(=O)[C@H](CCC(=O)O)NC(=O)[C@H](CCC(N)=O)NC(=O)[C@H](CCCCN)NC(=O)[C@H](CCCCN)NC(=O)[C@@H](NC(=O)[C@H](CCC(N)=O)NC(=O)[C@H](CCC(=O)O)NC(=O)[C@H](CCC(=O)O)NC(=O)[C@@H](NC(=O)[C@H](CCCCN)NC(=O)[C@H](CCCCN)NC(=O)[C@@H](NC(=O)[C@H](CC(C)C)NC(=O)[C@H](CCC(=O)O)NC(=O)[C@H](CCC(=O)O)NC(=O)[C@H](CO)NC(=O)[C@H](CCCCN)NC(=O)[C@H](CCCCN)NC(=O)[C@@H](NC(=O)[C@H](CC(C)C)NC(=O)[C@H](CCC(=O)O)NC(=O)[C@H](CCC(=O)O)NC(=O)[C@@H](NC(=O)[C@H](CCC(=O)O)NC(=O)[C@H](CCCNC(=N)N)NC(=O)[C@H](CC(=O)O)NC(=O)[C@H](Cc1c[nH]c2ccccc12)NC(=O)[C@H](CCC(=O)O)NC(=O)[C@H](CCSC)NC(=O)[C@H](Cc1c[nH]c2ccccc12)NC(C)=O)[C@@H](C)CC)[C@@H](C)CC)[C@@H](C)CC)[C@@H](C)CC)[C@@H](C)CC)C(=O)N[C@@H](CCCCN)C(=O)N[C@@H](CCCCN)C(N)=O [AP1] (Ac-WMEWDREIEELIKKSEELIKKIEEQIKKQEESIKK-NH2)
IC50 [2]: 396 nM | IC50 [3]: 86.2 nM | Fold change of IC50, HPS-1 [4]: 0.8 | Fold change of IC50, HPS-2 [4]: 0.6 | Fold change of IC50, HPS-3 [4]: 1.5 | Fold change of IC50, HPS-4 [4]: 0.8 | Fold change of IC50, HPS-5 [4]: 0.6 | IC50 [4, 22]: 87.4 ± 54.8 nM | IC50 [4, 23]: 70.1 ± 44.9 nM | IC50 [4, 24]: 165 ± 26.6 nM | IC50 [4, 25]: 89.5 ± 20.6 nM | IC50 [4, 26]: 68.5 ± 22.6 nM | reactivity with antibodies in sera from five HIV-1-infected patients [5]: none of the three artificial peptides AP1, AP2 and AP3 was recognized | Tm of complex with N36 [6]: 59.6 ^oC | α-helix content of complex with N36 [6]: 65.36%

CC[C@H](C)[C@H](NC(=O)[C@H](CO)NC(=O)[C@H](CCC(=O)O)NC(=O)[C@H](CCC(=O)O)NC(=O)[C@H](CCC(N)=O)NC(=O)[C@H](CCCCN)NC(=O)[C@H](CCCCN)NC(=O)[C@@H](NC(=O)[C@H](CCC(N)=O)NC(=O)[C@H](CCC(=O)O)NC(=O)[C@H](CCC(=O)O)NC(=O)[C@@H](NC(=O)[C@H](CCCCN)NC(=O)[C@H](CCCCN)NC(=O)[C@@H](NC(=O)[C@H](CC(C)C)NC(=O)[C@H](CCC(=O)O)NC(=O)[C@H](CCC(=O)O)NC(=O)[C@H](CO)NC(=O)[C@H](CCCCN)NC(=O)[C@H](CCCCN)NC(=O)[C@@H](NC(=O)[C@H](CC(C)C)NC(=O)[C@H](CCC(=O)O)NC(=O)[C@H](CCC(=O)O)NC(=O)[C@@H](NC(=O)[C@H](CCCCN)NC(=O)[C@H](CCCCN)NC(=O)[C@H](CC(=O)O)NC(=O)[C@H](Cc1c[nH]c2ccccc12)NC(=O)[C@H](CCC(=O)O)NC(=O)[C@H](CCC(=O)O)NC(=O)[C@H](Cc1c[nH]c2ccccc12)NC(C)=O)[C@@H](C)CC)[C@@H](C)CC)[C@@H](C)CC)[C@@H](C)CC)[C@@H](C)CC)C(=O)N[C@@H](CCCCN)C(=O)N[C@@H](CCCCN)C(N)=O [AP2] (Ac-WEEWDKKIEELIKKSEELIKKIEEQIKKQEESIKK-NH2)
IC50 [2]: 50 nM | IC50 [3]: 23.1 nM | IC50 [7]: 34.5 ± 2.3 nM | IC50 [8]: 65.6 ± 10.9 nM | IC50 [9]: 42.7 ± 1.4 nM | IC50 [10]: 41.4 ± 8.65 nM | IC50 [11]: 63.5 ± 6.37 nM | IC50 [12]: 72.7 ± 7.53 nM | IC50 [13]: 87.4 ± 5.26 nM | IC50 [14]: 262 ± 5.63 nM | Fold change of IC50, HPS-1 [4]: 0.5 | Fold change of IC50, HPS-2 [4]: 0.7 | Fold change of IC50, HPS-3 [4]: 1.7 | Fold change of IC50, HPS-4 [4]: 0.8 | Fold change of IC50, HPS-5 [4]: 1.5 | IC50 [4, 22]: 24.3 ± 10.2 nM | IC50 [4, 23]: 30.3 ± 4.2 nM | IC50 [4, 24]: 78.3 ± 8.6 nM | IC50 [4, 25]: 35.1 ± 2.3 nM | IC50 [4, 26]: 69.3 ± 3.2 nM | reactivity with antibodies in sera from five HIV-1-infected patients [5]: none of the three artificial peptides AP1, AP2 and AP3 was recognized | Tm of complex with N36 [6]: 82.3 ^oC | α-helix content of complex with N36 [6]: 69.51% | IC50 [15]: 39.9 ± 4.2 nM | IC50 [16]: 38 ± 12.5 nM | IC50 [17]: 35.6 ± 0.9 nM | IC50 [18]: 50 ± 4.5 nM | IC50 [19]: 47.1 ± 2.1 nM | Cmax [20]: 667.43 µg/mL | MRT [21]: 7.57 h | half-life [21]: 5.25 h

Enfuvirtide
IC50 [2]: 30.2 nM | IC50 [3]: 13.6 nM | IC50 [7]: 15.5 ± 3.5 nM | IC50 [8]: 29.7 ± 6.9 nM | IC50 [9]: 24.5 ± 3.6 nM | IC50 [10]: 943 ± 46.4 nM | IC50 [11]: > 2000 nM | IC50 [12]: > 2000 nM | IC50 [13]: > 2000 nM | IC50 [14]: > 5000 nM | IC50 [4, 22]: 128 ± 20.5 nM | IC50 [4, 23]: 134 ± 44.9 nM | IC50 [4, 24]: 157 ± 22 nM | IC50 [4, 25]: > 200 nM | IC50 [4, 26]: > 200 nM | IC50 [15]: 8.6 ± 1.7 nM | IC50 [16]: 16.2 ± 2.8 nM | IC50 [17]: 16.8 ± 6.5 nM | IC50 [18]: 14.2 ± 12.4 nM | IC50 [19]: 30.8 ± 0.5 nM
